Source: article PMC6442233, “SAR and molecular mechanism studies of monoamine oxidase inhibition by selected chalcone analogs” (Journal of Enzyme Inhibition and Medicinal Chemistry, 2019)

What was measured:
human MAO-A = target: T1, human MAO-A (Homo sapiens, UniProt P21397); test: IC50 determination for MAO-A inhibition (kynuramine, fluorescence); type: biochemical; conditions: recombinant hMAO-A, kynuramine 50 μM, mean ± SD (triplicate)
T1 construct: purchased Sigma-Aldrich
T1 sequence (P21397 1-527): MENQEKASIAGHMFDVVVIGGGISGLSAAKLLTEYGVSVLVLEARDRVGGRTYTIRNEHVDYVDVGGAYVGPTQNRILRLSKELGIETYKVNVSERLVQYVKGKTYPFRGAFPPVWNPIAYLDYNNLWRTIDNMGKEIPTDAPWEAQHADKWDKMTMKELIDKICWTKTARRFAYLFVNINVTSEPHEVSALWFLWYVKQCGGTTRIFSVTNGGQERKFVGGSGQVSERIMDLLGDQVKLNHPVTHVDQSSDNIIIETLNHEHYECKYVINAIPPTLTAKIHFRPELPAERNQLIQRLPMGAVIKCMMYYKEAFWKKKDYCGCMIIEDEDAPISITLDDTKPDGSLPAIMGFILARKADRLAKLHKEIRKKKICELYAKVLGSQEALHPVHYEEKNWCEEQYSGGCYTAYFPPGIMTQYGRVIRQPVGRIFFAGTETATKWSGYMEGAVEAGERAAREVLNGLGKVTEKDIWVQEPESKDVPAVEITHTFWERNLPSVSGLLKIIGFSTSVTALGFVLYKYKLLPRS
Description: (§1) IC50 values for the inhibition of MAO were determined by using the recombinant human MAO-A and MAO-B enzymes (Sigma-Aldrich). Enzyme reactions were performed at a final volume of 200 µL in white 96-well microplates (Eppendorf), with the reaction solvent consisting of potassium phosphate buffer (100 mM, pH 7.4, adjusted to isotonicity with KCl). The reactions contained the nonselective MAO substrate, kynuramine (50 μM), and the test inhibitors at 0.003–100 µM. The test compounds were initially dissolved in DMSO (100%), and after addition to the reactions yielded a concentration of 4% DMSO. Control reactions were included, which contained substrate and 4% DMSO but no test inhibitor. The MAO reactions were started by adding MAO-A (0.0075 mg protein/mL) or MAO-B (0.015 mg protein/mL), and were subsequently incubated for a period of 20 min (37 °C) in a convection oven. A volume of 80 µL 2 N sodium hydroxide was added to the reactions, and the fluorescence intensity of 4-hydroxyquinoline (the end-product of the MAO-catalyzed metabolism of kynuramine) in the reactions was measured at λex 310 and λem 400 nm. To quantify 4-hydroxyquinoline, a calibration curve (linear) ranging from 0.047 to 1.56 μM, was employed. […] These measurements were carried out in triplicate and the IC50 values are presented as the mean ± standard deviation (SD)[18].
(§2) The formation of the dihydropyridinium species (MMDP^+) as a MAO-catalyzed oxidation product of MMTP was monitored at 420 nm. […] Based on this, the IC50 values were determined using kynuramine as a nonselective substrate. The rate of oxidation of kynuramine by MAO was monitored by measuring the fluorescence of the oxidation product, 4-hydroxyquinoline (λex= 310 nm; λem= 400 nm).

human MAO-B = target: T2, human MAO-B (Homo sapiens, UniProt P27338); test: IC50 determination for MAO-B inhibition (kynuramine, fluorescence); type: biochemical; conditions: for Selectivity index: SI = IC50(MAO-A)/IC50(MAO-B); for IC50: recombinant hMAO-B, kynuramine 50 μM, mean ± SD (triplicate)
T2 construct: purchased Sigma-Aldrich
T2 sequence (P27338 1-520): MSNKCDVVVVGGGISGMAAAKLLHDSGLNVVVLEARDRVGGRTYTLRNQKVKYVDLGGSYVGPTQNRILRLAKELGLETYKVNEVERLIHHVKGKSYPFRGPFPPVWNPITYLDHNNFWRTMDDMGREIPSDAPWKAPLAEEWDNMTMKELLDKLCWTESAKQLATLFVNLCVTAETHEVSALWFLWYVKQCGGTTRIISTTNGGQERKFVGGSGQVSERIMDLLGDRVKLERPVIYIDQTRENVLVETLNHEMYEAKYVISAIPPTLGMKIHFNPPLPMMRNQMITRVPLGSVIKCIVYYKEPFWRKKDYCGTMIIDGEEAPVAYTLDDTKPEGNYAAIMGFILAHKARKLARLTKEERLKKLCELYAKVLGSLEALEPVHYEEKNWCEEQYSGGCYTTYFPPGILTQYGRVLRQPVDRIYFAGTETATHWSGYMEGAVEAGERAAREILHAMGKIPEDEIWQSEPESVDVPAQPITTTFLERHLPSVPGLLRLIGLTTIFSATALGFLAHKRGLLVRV
Description: as §1, §2

IC50 (human MAO-A)	Selectivity index (human MAO-B)	IC50 (human MAO-B)	melting point	Compound
5.81 ± 0.878 µM	5.8	0.999 ± 0.276 µM	73 to 77 °C	COc1ccccc1/C=C/C(=O)c1ccc(Br)cc1 [Compound 20, (E)-1–(4-bromophenyl)-3–(2-methoxyphenyl)prop-2-en-1-one]
7.18 ± 0.755 µM	67	0.106 ± 0.012 µM	96 to 100 °C	O=C(/C=C/c1cccc2c1OCO2)c1ccc(Br)cc1 [Compound 5, (E)-3-(benzo[d][1,3]dioxol-4-yl)-1–(4-bromophenyl)prop-2-en-1-one]
> 100 µM	>260	0.383 ± 0.061 µM		CN(C)c1ccc(/C=C/C(=O)c2ccc(C(F)(F)F)cc2)cc1 [Compound 2, (E)-3–(4-(dimethylamino)phenyl)-1–(4-(trifluoromethyl)phenyl)prop-2-en-1-one]
0.56 ± 0.076 µM	<0.005	> 100 µM		COc1cc(OC)c(/C=C/C(=O)c2ccc(Br)cc2)c(OC)c1 [Compound 18, (E)-1–(4-bromophenyl)-3–(2,4,6-trimethoxyphenyl)prop-2-en-1-one]
> 100 µM	>1230	0.081 ± 0.012 µM	107 to 111 °C	O=C(/C=C/c1cccc2c1OCO2)c1cccc(Br)c1 [Compound 7, (E)-3-(benzo[d][1,3]dioxol-4-yl)-1–(3-bromophenyl)prop-2-en-1-one]
14.3 ± 1.81 µM	116	0.123 ± 0.003 µM		CN(C)c1ccc(/C=C/C(=O)c2cccc(C(F)(F)F)c2)cc1 [Compound 1, (E)-3–(4-(dimethylamino)phenyl)-1–(3-(trifluoromethyl)phenyl)prop-2-en-1-one]
18.1 ± 3.49 µM	130	0.139 ± 0.019 µM	83 to 87 °C	O=C(/C=C/c1cccc2c1OCO2)c1ccc(Cl)cc1 [Compound 6, (E)-3-(benzo[d][1,3]dioxol-4-yl)-1–(4-chlorophenyl)prop-2-en-1-one]
6.59 ± 0.422 µM	37	0.174 ± 0.015 µM	120 to 124 °C	COc1cccc(/C=C/C(=O)c2ccc(Br)cc2)c1OC [Compound 21, (E)-1–(4-bromophenyl)-3–(2,3-dimethoxyphenyl)prop-2-en-1-one]
0.173 ± 0.003 µM	1.7	0.102 ± 0.009 µM	150 to 153 °C	O=C(/C=C/c1ccc(Br)cc1)c1ccc2c(c1)OCO2 [Compound 15, (E)-1-(benzo[d][1,3]dioxol-5-yl)-3–(4-bromophenyl)prop-2-en-1-one]
> 100 µM	>1720	0.058 ± 0.009 µM	79 to 83 °C	O=C(/C=C/c1cccc2c1OCO2)c1cccc(Cl)c1 [Compound 8, (E)-3-(benzo[d][1,3]dioxol-4-yl)-1–(3-chlorophenyl)prop-2-en-1-one]
87.3 ± 9.34 µM	150	0.582 ± 0.03 µM	199 to 203 °C	COc1cc(Br)ccc1/C=C/C(=O)c1ccc(S(C)(=O)=O)cc1 [Compound 10, (E)-3–(4-bromo-2-methoxyphenyl)-1–(4-(methylsulfonyl)phenyl)prop-2-en-1-one]
96.6 ± 5.21 µM	487	0.198 ± 0.012 µM	139 to 143 °C	CSc1ccc(C(=O)/C=C/c2cccc(Br)c2)cc1 [Compound 11, (E)-3–(3-bromophenyl)-1–(4-(methylthio)phenyl)prop-2-en-1-one]
45.5 ± 2.93 µM		0.034 ± 0.006 µM	162 to 166 °C	O=C(/C=C/c1ccc([N+](=O)[O-])cc1)c1ccc(Cl)cc1 [Compound 13, (E)-1–(4-chlorophenyl)-3–(4-nitrophenyl)prop-2-en-1-one]
0.444 ± 0.039 µM	<0.004	> 100 µM		COc1cc(OC)c(/C=C/C(=O)c2ccc(F)cc2)c(OC)c1 [Compound 19, (E)-1–(4-fluorophenyl)-3–(2,4,6-trimethoxyphenyl)prop-2-en-1-one]
> 100 µM	>240	0.404 ± 0.064 µM	206 to 210 °C	CS(=O)(=O)c1ccc(C(=O)/C=C/c2ccc(Br)cc2)cc1 [Compound 9, (E)-3–(4-bromophenyl)-1–(4-(methylsulfonyl)phenyl)prop-2-en-1-one]
> 100 µM	>310	0.321 ± 0.023 µM		CN(C)c1ccc(/C=C/C(=O)c2ccc(Cl)cc2)cc1 [Compound 4, (E)-1–(4-chlorophenyl)-3–(4-(dimethylamino)phenyl)prop-2-en-1-one]
11.9 ± 0.822 µM	172	0.069 ± 0.006 µM	165 to 169 °C	O=C(/C=C/c1ccc([N+](=O)[O-])cc1)c1ccc(F)cc1 [Compound 12, (E)-1–(4-fluorophenyl)-3–(4-nitrophenyl)prop-2-en-1-one]
> 100 µM		15.6 ± 0.803 µM	75 to 79 °C	CCOc1cccc(/C=C/C(=O)c2ccc(Br)cc2)c1OCC [Compound 22, (E)-1–(4-bromophenyl)-3–(2,3-diethoxyphenyl)prop-2-en-1-one]
> 100 µM	>185	0.539 ± 0.058 µM		CN(C)c1ccc(/C=C/C(=O)c2ccc(Br)cc2)cc1 [Compound 3, (E)-1–(4-bromophenyl)-3–(4-(dimethylamino)phenyl)prop-2-en-1-one]
